Molecular target: T1, His-tagged human recombinant active PKC theta (Homo sapiens, UniProt Q04759)
T1 construct: His; made in house
Assay: IMAP fluorescence polarization assay, inhibition of PKC theta kinase activity
Assay type: biochemical
Settings: ATP 10 μM, peptide substrate 50 nM, 60 minutes at 30° C.; read-out: IC50 IMAP PKCθ
Protocol: Inhibition of PKC theta kinase activity was measured using an Immobilized Metal for Phosphochemicals—based coupled assay (IMAP). IMAP is a homogeneous fluorescence polarization (FP) assay based on affinity capture of phosphorylated peptide substrates. IMAP uses fluorescein-labeled peptide substrates that, upon phosphorylation by a protein kinase, bind to so called IMAP nanoparticles, which are derivatized with trivalent metal complexes. Such binding causes a change in the rate of the molecular motion of the peptide, and results in an increase in the FP value observed for the fluorescein label attached to the substrate peptide. In this assay, PKC theta directly phosphorylates the fluorescein-labeled peptide substrate.
Enzymes, substrate and ATP are diluted at all steps in Kinase Reaction buffer (10 mM Tris-HCl, 10 mM MgCl2, 0.01% Tween-20, 0.05% NaN3 pH 7.2, 1 mM DTT). The final volume at the kinase reaction step of the assay in the 384-well plate is 20 μl. The concentrations presented within brackets are final concentrations. First, compounds or DMSO (1%) are added to the wells. Thereafter, peptide substrate (Pseudosubstrate LHQRRGSIKQAKVHHVK-FL, Neosystem, 50 nM) and ATP (10 μM) are added followed by the addition of the PKC theta enzyme (His-tagged human recombinant active PKC theta, 82 kDa, in-house purified, 10 ng/ml), and the mix is incubated for 60 minutes at 30° C. in the dark. Then IMAP progressive binding buffer (100% 1× buffer A, 1:400 Progressive Binding Reagent; Molecular Devices) is added followed by an incubation step of 60 minutes at room temperature in the dark. Finally, the FP signal is read.

T1 sequence (Q04759 whole entry): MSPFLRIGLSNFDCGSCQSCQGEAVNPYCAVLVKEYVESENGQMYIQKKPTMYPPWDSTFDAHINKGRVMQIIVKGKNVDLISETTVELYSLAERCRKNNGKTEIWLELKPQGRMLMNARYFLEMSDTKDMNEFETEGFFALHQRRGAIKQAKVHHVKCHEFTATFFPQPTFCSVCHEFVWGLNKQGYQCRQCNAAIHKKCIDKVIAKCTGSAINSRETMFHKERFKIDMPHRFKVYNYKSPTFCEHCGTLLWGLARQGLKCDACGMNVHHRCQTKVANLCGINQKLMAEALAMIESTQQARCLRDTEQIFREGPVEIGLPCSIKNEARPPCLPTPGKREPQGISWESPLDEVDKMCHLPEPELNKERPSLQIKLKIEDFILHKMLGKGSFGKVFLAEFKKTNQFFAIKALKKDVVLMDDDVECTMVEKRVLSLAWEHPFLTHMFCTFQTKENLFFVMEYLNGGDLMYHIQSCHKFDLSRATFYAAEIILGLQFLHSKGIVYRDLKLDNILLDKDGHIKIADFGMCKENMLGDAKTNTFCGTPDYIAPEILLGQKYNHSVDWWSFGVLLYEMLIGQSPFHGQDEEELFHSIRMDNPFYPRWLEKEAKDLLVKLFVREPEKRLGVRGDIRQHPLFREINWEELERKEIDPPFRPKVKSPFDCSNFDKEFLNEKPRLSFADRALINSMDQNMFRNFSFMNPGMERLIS

| SMILES | IC50 |
| --- | --- |
| Oc1ccc(CNc2ncc3cc(-c4ccccc4Cl)n(C[C@@H]4CCCNC4)c3n2)cc1 [Example 1.2, (R)-4-((6-(2-chlorophenyl)-7-(piperidin-3-ylmethyl)-7H-pyrrolo[2,3-d]pyrimidin-2-ylamino)methyl)phenol] | 10 to 100 nM |
| Oc1ccc(CNc2ncc3cc(-c4c(Cl)cccc4Cl)n(C[C@@H]4CCCNC4)c3n2)cc1 [Example 2.3, (R)-4-((6-(2,6-dichlorophenyl)-7-(piperidin-3-ylmethyl)-7H-pyrrolo[2,3-d]pyrimidin-2-ylamino)methyl)phenol] | 100 to 10000 nM |
| Fc1ccc(CNc2ncc3cc(-c4ccccc4Cl)n(C[C@@H]4CCCNC4)c3n2)cc1F [Example 1.1, (R)-6-(2-chlorophenyl)-N-(3,4-difluorobenzyl)-7-(piperidin-3-ylmethyl)-7H-pyrrolo[2,3-d]pyrimidin-2-amine] | < 10 nM |
| Cc1c(-c2c(Cl)cccc2Cl)n(C[C@@H]2CCCNC2)c2nc(NCc3ccc(F)c(F)c3)ncc12 [Example 3.2, (R)-6-(2,6-dichlorophenyl)-N-(3,4-difluorobenzyl)-5-methyl-7-(piperidin-3-ylmethyl)-7H-pyrrolo[2,3-d]pyrimidin-2-amine] | < 10 nM |
| Oc1cccc(CNc2ncc3cc(-c4c(Cl)cccc4Cl)n(C[C@@H]4CCCNC4)c3n2)c1 [Example 2.1, (R)-3-((6-(2,6-dichlorophenyl)-7-(piperidin-3-ylmethyl)-7H-pyrrolo[2,3-d]pyrimidin-2-ylamino)methyl)phenol] | < 10 nM |
| Cc1c(-c2ccccc2Cl)n(C[C@@H]2CCCNC2)c2nc(NCc3ccc(F)c(F)c3)ncc12 [Example 3.1, (R)-6-(2-chlorophenyl)-N-(3,4-difluorobenzyl)-5-methyl-7-(piperidin-3-ylmethyl)-7H-pyrrolo[2,3-d]pyrimidin-2-amine] | 10 to 100 nM |
| COc1ccc(CNc2ncc3cc(-c4c(Cl)cccc4Cl)n(C[C@@H]4CCCNC4)c3n2)cc1F [Example 2.4, (R)-6-(2,6-dichlorophenyl)-N-(3-fluoro-4-methoxybenzyl)-7-(piperidin-3-ylmethyl)-7H-pyrrolo[2,3-d]pyrimidin-2-amine] | < 10 nM |
| Fc1cccc(CNc2ncc3cc(-c4c(Cl)cccc4Cl)n(C[C@@H]4CCCNC4)c3n2)c1 [Example 2.5, (R)-6-(2,6-dichlorophenyl)-N-(3-fluorobenzyl)-7-(piperidin-3-ylmethyl)-7H-pyrrolo[2,3-d]pyrimidin-2-amine] | < 10 nM |
| Clc1cccc(Cl)c1-c1cc2cnc(NCc3ccccc3)nc2n1C[C@@H]1CCCNC1 [Example 2.6, (R)-N-benzyl-6-(2,6-dichlorophenyl)-7-(piperidin-3-ylmethyl)-7H-pyrrolo[2,3-d]pyrimidin-2-amine] | < 10 nM |
| Cc1c(-c2ccccc2)n(C[C@@H]2CCCNC2)c2nc(NCc3ccc(F)c(F)c3)ncc12 [Example 3.3, (R)—N-(3,4-difluorobenzyl)-5-methyl-6-phenyl-7-(piperidin-3-ylmethyl)-7H-pyrrolo[2,3-d]pyrimidin-2-amine] | 100 to 10000 nM |
| Oc1ccc(CNc2ncc3cc(-c4ccccc4Cl)n(C[C@@H]4CCCNC4)c3n2)cc1F [Example 1.4, (R)-4-((6-(2-chlorophenyl)-7-(piperidin-3-ylmethyl)-7H-pyrrolo[2,3-d]pyrimidin-2-ylamino)methyl)-2-fluorophenol] | < 10 nM |
| Oc1cccc(CNc2ncc3cc(-c4ccccc4Cl)n(C[C@@H]4CCCNC4)c3n2)c1 [Example 1.3, (R)-3-((6-(2-chlorophenyl)-7-(piperidin-3-ylmethyl)-7H-pyrrolo[2,3-d]pyrimidin-2-ylamino)methyl)phenol] | 10 to 100 nM |
| Fc1ccc(CNc2ncc3cc(-c4c(Cl)cccc4Cl)n(C[C@@H]4CCCNC4)c3n2)cc1F [Example 2.2, (R)-6-(2,6-dichlorophenyl)-N-(3,4-difluorobenzyl)-7-(piperidin-3-ylmethyl)-7H-pyrrolo[2,3-d]pyrimidin-2-amine] | < 10 nM |

Results, then the compound that gave them:

| IC50 | SMILES |
| --- | --- |
| < 10 nM | N#Cc1c(-c2c(Cl)cccc2Cl)n(C[C@@H]2CCCNC2)c2nc(NCc3ccc(F)c(F)c3)ncc12 [Example 7.1, (R)-6-(2,6-dichlorophenyl)-2-(3,4-difluorobenzylamino)-7-(piperidin-3-ylmethyl)-7H-pyrrolo[2,3-d]pyrimidine-5-carbonitrile] |
| 10 to 100 nM | Fc1ccc(CNc2ncc3cc(-c4ccccc4Cl)n(CC4CNCCO4)c3n2)cc1F (centres unmarked) [Example 4.4, 6-(2-chlorophenyl)-N-(3,4-difluorobenzyl)-7-(morpholin-2-ylmethyl)-7H-pyrrolo[2,3-d]pyrimidin-2-amine] |
| 10 to 100 nM | COc1ccc(-c2cc3cnc(NCc4ccc(F)c(F)c4)nc3n2C[C@@H]2CCCNC2)c(Cl)c1 [Example 5.2, (R)-6-(2-chloro-4-methoxyphenyl)-N-(3,4-difluorobenzyl)-7-(piperidin-3-ylmethyl)-7H-pyrrolo[2,3-d]pyrimidin-2-amine] |
| < 10 nM | Fc1ccc(CNc2ncc3c(Br)c(-c4c(Cl)cccc4Cl)n(C[C@@H]4CCCNC4)c3n2)cc1F [Example 7.3, (R)-5-bromo-6-(2,6-dichlorophenyl)-N-(3,4-difluorobenzyl)-7-(piperidin-3-ylmethyl)-7H-pyrrolo[2,3-d]pyrimidin-2-amine] |
| < 10 nM | Oc1ccc(CNc2ncc3cc(-c4c(Cl)cccc4Cl)n(C[C@@H]4CCCNC4)c3n2)cc1Cl [Example 6.1, (R)-2-chloro-4-((6-(2,6-dichlorophenyl)-7-(piperidin-3-ylmethyl)-7H-pyrrolo[2,3-d]pyrimidin-2-ylamino)methyl)phenol] |
| 10 to 100 nM | Fc1ccc(CNc2ncc3cc(-c4ccccc4Cl)n(C[C@H]4CCCNC4)c3n2)cc1F [Example 4.1, (S)-6-(2-chlorophenyl)-N-(3,4-difluorobenzyl)-7-(piperidin-3-ylmethyl)-7H-pyrrolo[2,3-d]pyrimidin-2-amine] |
| < 10 nM | Cc1ccc(-c2cc3cnc(NCc4ccc(F)c(F)c4)nc3n2C[C@@H]2CCCNC2)c(Cl)c1 [Example 5.1, (R)-6-(2-chloro-4-methylphenyl)-N-(3,4-difluorobenzyl)-7-(piperidin-3-ylmethyl)-7H-pyrrolo[2,3-d]pyrimidin-2-amine] |
| 100 to 10000 nM | Fc1ccc(CNc2ncc3cc(-c4ccccc4Cl)n(C[C@@H]4CCNC4)c3n2)cc1F [Example 4.2, (R)-6-(2-chlorophenyl)-N-(3,4-difluorobenzyl)-7-(pyrrolidin-3-ylmethyl)-7H-pyrrolo[2,3-d]pyrimidin-2-amine] |
| < 10 nM | Oc1ccc(CNc2ncc3cc(-c4c(Cl)cccc4Cl)n(C[C@@H]4CCCNC4)c3n2)cc1F [Example 6.2, (R)-4-((6-(2,6-dichlorophenyl)-7-(piperidin-3-ylmethyl)-7H-pyrrolo[2,3-d]pyrimidin-2-ylamino)methyl)-2-fluorophenol] |
| < 10 nM | Oc1ccc(-c2cc3cnc(NCc4ccc(F)c(F)c4)nc3n2C[C@@H]2CCCNC2)c(Cl)c1 [Example 5.3, (R)-3-chloro-4-(2-(3,4-difluorobenzylamino)-7-(piperidin-3-ylmethyl)-7H-pyrrolo[2,3-d]pyrimidin-6-yl)phenol] |
| < 10 nM | Fc1cc(Cl)c(-c2cc3cnc(NCc4ccc(F)c(F)c4)nc3n2C[C@@H]2CCCNC2)c(Cl)c1 [Example 5.5, (R)-6-(2,6-dichloro-4-fluorophenyl)-N-(3,4-difluorobenzyl)-7-(piperidin-3-ylmethyl)-7H-pyrrolo[2,3-d]pyrimidin-2-amine] |
| 10 to 100 nM | Fc1ccc(CNc2ncc3cc(-c4ccc(Cl)cc4Cl)n(C[C@@H]4CCCNC4)c3n2)cc1F [Example 5.4, (R)-6-(2,4-dichlorophenyl)-N-(3,4-difluorobenzyl)-7-(piperidin-3-ylmethyl)-7H-pyrrolo[2,3-d]pyrimidin-2-amine] |
| < 10 nM | Fc1ccc(CNc2ncc3cc(-c4c(Cl)cccc4Cl)n(CC4CNCCS4)c3n2)cc1F (centres unmarked) [Example 8.1, 6-(2,6-Dichlorophenyl)-N-(3,4-difluorobenzyl)-7-(thiomorpholin-2-ylmethyl)-7H-pyrrolo[2,3-d]pyrimidin-2-amine] |
| 10 to 100 nM | Fc1ccc(CNc2ncc3cc(-c4ccccc4Cl)n(C[C@H]4CCNC4)c3n2)cc1F [Example 4.3, (S)-6-(2-chlorophenyl)-N-(3,4-difluorobenzyl)-7-(pyrrolidin-3-ylmethyl)-7H-pyrrolo[2,3-d]pyrimidin-2-amine] |
| < 10 nM | Fc1ccc(CNc2ncc3cc(-c4c(Cl)cccc4Cl)n(C4CCCNCC4)c3n2)cc1F (centres unmarked) [Example 8.2, 7-(Azepan-4-yl)-6-(2,6-dichlorophenyl)-N-(3,4-difluorobenzyl)-7H-pyrrolo[2,3-d]pyrimidin-2-amine] |
| < 10 nM | Fc1ccc(CNc2ncc3c(F)c(-c4c(Cl)cccc4Cl)n(C[C@@H]4CCCNC4)c3n2)cc1F [Example 7.2, (R)-6-(2,6-dichlorophenyl)-N-(3,4-difluorobenzyl)-5-fluoro-7-(piperidin-3-ylmethyl)-7H-pyrrolo[2,3-d]pyrimidin-2-amine] |

From US20110218189A1, “PYRROLO[2,3-d]PYRIMIDIN-2-YL-AMINE DERIVATIVES AS PKC-THETA INHIBITORS” (N.V. ORGANON, priority 2008, published 2011)
